The values that follow come from patent US6066649A, “Drug for cardiovascular diseases” (Podzuweit; Thomas, priority 1992, dated 2000).

Molecules are shown by their SMILES. Read-outs that look alike come from different tables or passages of the source.

For one series, the target named is human ADA. Particulars: read-out: K1 value for human ADA; racemic (±)-EHNA; cited from earlier work.
The next series deals with ADA. The settings on record: in words; cited from earlier work.
The target in series [1] is T1, cGMP-stimulated PDE II (Homo sapiens, UniProt O00408).
T1 construct: cytosolic cGMP-stimulated PDE II isoenzyme from human myocardium; from tissue; host or cells: human left ventricular papillary muscle, soluble extract, DEAE-Sepharose CL-6B peak fraction
T1 sequence (O00408 1-920 isoform O00408-2): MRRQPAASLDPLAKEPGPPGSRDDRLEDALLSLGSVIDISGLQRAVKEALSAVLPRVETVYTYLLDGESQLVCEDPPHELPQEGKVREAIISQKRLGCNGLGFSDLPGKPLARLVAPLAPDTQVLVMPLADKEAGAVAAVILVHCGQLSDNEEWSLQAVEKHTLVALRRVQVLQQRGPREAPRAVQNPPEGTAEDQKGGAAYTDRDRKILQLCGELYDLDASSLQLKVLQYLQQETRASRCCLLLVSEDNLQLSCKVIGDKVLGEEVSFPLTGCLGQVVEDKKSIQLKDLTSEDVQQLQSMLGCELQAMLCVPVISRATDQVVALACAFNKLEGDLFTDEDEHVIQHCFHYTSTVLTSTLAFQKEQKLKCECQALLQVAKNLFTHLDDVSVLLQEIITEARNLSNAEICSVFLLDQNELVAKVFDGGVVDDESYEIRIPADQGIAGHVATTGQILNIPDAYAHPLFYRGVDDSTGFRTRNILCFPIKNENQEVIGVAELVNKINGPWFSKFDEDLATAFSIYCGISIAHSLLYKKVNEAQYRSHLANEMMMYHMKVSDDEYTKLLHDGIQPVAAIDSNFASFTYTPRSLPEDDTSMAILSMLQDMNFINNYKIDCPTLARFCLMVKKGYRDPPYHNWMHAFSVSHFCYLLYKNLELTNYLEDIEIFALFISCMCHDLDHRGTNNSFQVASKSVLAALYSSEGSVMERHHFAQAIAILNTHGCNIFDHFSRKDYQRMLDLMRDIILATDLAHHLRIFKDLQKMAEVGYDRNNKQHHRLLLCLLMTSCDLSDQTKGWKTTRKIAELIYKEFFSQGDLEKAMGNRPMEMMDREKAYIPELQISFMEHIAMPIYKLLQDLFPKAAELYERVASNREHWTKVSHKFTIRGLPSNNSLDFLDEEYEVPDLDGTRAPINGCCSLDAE
In words: Test for PDE activity, inhibition of cytosolic cGMP-stimulated PDE II from human myocardium. The series is classed as biochemical. From the text:
(§1) Samples of the left ventricular papillary muscles were obtained with the consent of patient who underwent an exchange of a mitral flap in the Universitats-Krankenhaus Gieβen, FRG. The myocardium samples of pigs (male pigs of the German breed of swine, 25 to 30 kg body weight) were obtained following excision of the hearts under Nembutal anesthesia. The samples were immediately frozen in liquid nitrogen and were then pulverized in a high speed mill and pre-cooled in liquid nitrogen. […] All of the following steps were conducted at 4° C. The homogenate was centrifuged at 48,000 g for 30 minutes. […] The column was washed with 200 ml of buffer; and the PDE activities were eluted with a linear gradient ranging from 0.05 to 1 M of sodium acetate in buffer (flow time of the gradient: 500 minutes). The flow rate was 1 ml/min. 5 ml fractions were obtained and tested for PDE activity.
(§2) The PDE activity was measured with an off line liquid scintillation spectrometry using HPLC. […] The enzyme activity was measured at 25° C. with 10 minute incubations. The reaction was started with the addition of 50 μl of enzyme solution and terminated through injection of 20 μl of 60% perchloric acid. Aliquots of 20 μl of acidic supernatant were siphoned off and injected into an automated HPLC system (column LiChrospher RP-18e) (250×4 mm; 5 μm packing).
(§3) The data were fitted with four parameters with the aid of the sigmoidal logistic function.
(§4) The soluble PDE isoenzymes from swine and human myocardium were severed by means of anion exchange chromatography using DEAE-sepharose CL-6B. The enzyme activities were called PDE I to IV according to the nomenclature of J. A. Beavo and D. H. Reifsnyder. The PDE II activity was stimulated by means of cGMP (1 μM).

The test system of series [2] is other cyclic nucleotide phosphodiesterases. The series is described as follows: Test for PDE activity, inhibition of the other cyclic nucleotide phosphodiesterases from swine myocardium. The series is classed as biochemical. The settings on record: 1 μM cAMP or cGMP substrate, 25° C., pH 7.5. From the text:
(§5) Samples of the left ventricular papillary muscles were obtained with the consent of patient who underwent an exchange of a mitral flap in the Universitats-Krankenhaus Gieβen, FRG. The myocardium samples of pigs (male pigs of the German breed of swine, 25 to 30 kg body weight) were obtained following excision of the hearts under Nembutal anesthesia. The samples were immediately frozen in liquid nitrogen and were then pulverized in a high speed mill and pre-cooled in liquid nitrogen. The frozen tissue powder was sieved through a screen made of stainless steel (-196° C.) (mesh size: 0.315 mm) in an homogenizing buffer (4° C.) (1 ml per 100 mg of powder), comprising (final concentrations): 20 mM of bis-tris, 2 mM of EDTA, 5 mM of 2-mercaptoethanol, 2 mM of benzamidine, 50 μM of phenylmethylsulfonylfluoride, 50 mM of sodium acetate, pH 6.5. All of the following steps were conducted at 4° C. The homogenate was centrifuged at 48,000 g for 30 minutes. […]
(§6) The PDE activity was measured with an off line liquid scintillation spectrometry using HPLC. […] The enzyme activity was measured at 25° C. with 10 minute incubations. […]
(§7) The radioactive substrates and the products of the PDE reaction were determined quantitatively using a RACKBETA 1219 liquid scintillation counter (LKB Wallac, Freiburg, FRG). […]

The test system of series [3] is adenosine deaminase. Particulars: ADA and cGMP-stimulated PDE.
The target of series [4] is T2, cGMP-stimulated PDE II (Sus scrofa, UniProt F1SUV3).
T2 construct: soluble cGMP-stimulated PDE II from swine myocardium; from tissue; host or cells: myocardium of male German breed swine, soluble extract, DEAE-Sepharose CL-6B peak fraction
T2 sequence (F1SUV3 1-945): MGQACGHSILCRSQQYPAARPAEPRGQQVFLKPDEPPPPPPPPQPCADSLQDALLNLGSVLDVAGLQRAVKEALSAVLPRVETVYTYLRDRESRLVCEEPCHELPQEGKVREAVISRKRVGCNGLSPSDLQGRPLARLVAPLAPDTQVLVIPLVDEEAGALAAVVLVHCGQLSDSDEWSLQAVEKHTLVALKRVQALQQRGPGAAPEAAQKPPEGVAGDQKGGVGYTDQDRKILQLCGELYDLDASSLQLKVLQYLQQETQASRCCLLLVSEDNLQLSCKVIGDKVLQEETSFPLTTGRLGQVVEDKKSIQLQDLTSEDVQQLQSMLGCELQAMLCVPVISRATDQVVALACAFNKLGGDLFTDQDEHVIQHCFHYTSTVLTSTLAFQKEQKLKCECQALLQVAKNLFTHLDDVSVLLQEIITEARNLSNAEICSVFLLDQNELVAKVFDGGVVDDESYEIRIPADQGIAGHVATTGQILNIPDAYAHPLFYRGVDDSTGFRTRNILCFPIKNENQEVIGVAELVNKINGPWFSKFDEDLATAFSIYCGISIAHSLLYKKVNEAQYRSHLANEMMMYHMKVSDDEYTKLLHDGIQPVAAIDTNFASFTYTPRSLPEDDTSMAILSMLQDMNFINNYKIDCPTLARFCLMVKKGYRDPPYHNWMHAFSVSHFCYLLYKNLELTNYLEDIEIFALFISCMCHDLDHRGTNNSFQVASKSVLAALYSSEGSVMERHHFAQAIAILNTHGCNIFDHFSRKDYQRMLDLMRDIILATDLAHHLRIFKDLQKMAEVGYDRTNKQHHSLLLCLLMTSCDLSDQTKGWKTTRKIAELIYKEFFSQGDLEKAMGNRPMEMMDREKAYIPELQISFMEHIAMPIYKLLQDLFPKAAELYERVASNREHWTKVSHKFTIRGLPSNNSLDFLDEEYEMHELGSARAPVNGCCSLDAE
In words: Test for PDE activity, inhibition of soluble cGMP-stimulated PDE II from swine myocardium. The series is classed as biochemical. The settings on record: 1 μM cAMP or cGMP substrate, 25° C., pH 7.5.
Description: as §5, §6, §7

Series [5] has as its target adenosine deaminase. Particulars: cited from earlier work; for inhibition of adenosine deaminase: in words.
Series [6] concerns cGMP content of the rat aorta. Particulars: as a function of the dose; cited from earlier work.
Another series deals with PDE I. In words: Test for PDE activity, inhibition of soluble PDE I from human myocardium. Particulars: 1 μM cAMP or cGMP substrate, 25° C., pH 7.5. Type of series: biochemical.
Description: as §5, §6, §7

The subject of a further series is arrhythmias. The series is described as follows: Antiarrhythmic action. The settings on record: in words; no test data given.
Another series deals with mouse, rat and rabbit. The settings on record: cited from earlier work.
For series [7] the following is noted: cited from earlier work.
In series [8] the test system is cGMP-stimulated PDE II. In words: Test for PDE activity, inhibition of cytosolic cGMP-stimulated PDE II from human myocardium. The series is classed as biochemical. Particulars: cGMP 1 μM; in words; swine and human myocardium.
Description: as §1, §2, §3, §4

For `CCCCCC[C@H]([C@H](C)O)n1cnc2c(N)ncnc21` (relative stereo) [EHNA, erythro-9-(2-hydroxy-3-nonyl)-adenine], the Ki at human ADA was 4 nM; at adenosine deaminase [5] (classical competitive inhibition, first bonding step, read-out: inhibition constant K1 of the initial bonding step), 200 nM; on adenosine deaminase [5] (fixed enzyme-inhibitor complex after rearrangement, read-out: total inhibition constant), 1.7 nM. Also, the “concentrations of EHNA required to inhibit ADA in intact cells” value in the series with ADA was “much higher concentrations”. The “inhibition of the cGMP-stimulated enzyme at the concentration at which inhibition of the PDE isotypes I, III and IV began” value against cGMP-stimulated PDE II [1] (human myocardium) was “more than 99%”. The 50% inhibitory concentration (IC50) against cGMP-stimulated PDE II [1] (human myocardium, 1 μM cAMP or cGMP substrate, 25° C., pH 7.5) was 800 nM; in series [2], over 100000 nM; against cGMP-stimulated PDE II [4] it was 2000 nM. Also, the “activity as inhibitor of PDE II compared with papaverine, on a molar basis” value at cGMP-stimulated PDE II [1] (in words) is “more active”. Further, the “doses having inhibiting effects on both enzymes (adenosine deaminase and cGMP-stimulated PDE)” value in the series on adenosine deaminase [3] is “more than 10^-7 M”. Moreover, the “inhibition of adenosine deaminase” value in the series on adenosine deaminase [5] is “inhibiting effects both on adenosine deaminase and cGMP-stimulated PDE”.

With `CCCOc1ccccc1-c1nc2nn[nH]c2c(=O)[nH]1` [2-o-propoxyphenyl-8-azapurine-6-one, 1,4-dihydro-5-(2-propoxyphenyl-7H-1,2,3-triazolo[4,5-d]pyrimidine-7-one)], in series [6], the “effect on cGMP content of the rat aorta” value was “raises the cGMP content”. This compound displayed an IC50 with PDE I of 8000 nM. Moreover, the antiarrhythmic action entry with arrhythmias was “strong antiarrhythmic agents”. Further, the “acute oral LD50” value in the series with mouse, rat and rabbit (in vivo, po) is given as 1,400-2,000 mg/kg. The toxicity entry with mouse, rat and rabbit (in words) was “low toxicity”. Besides, the “solubility in acetone and ethanol and weakly basic solutions” value in [7] (acetone and ethanol and weakly basic solutions) was “dissolves in acetone and ethanol and weakly basic solutions”. Also, the solubility in water entry in series [7] (water) was “slightly soluble in water”. Besides, in the series with adenosine deaminase [5], the “inhibition of adenosine deaminase” value was “does not inhibit the adenosine deaminase”.

Take `Nc1nc2c(ncn2[C@@H]2O[C@@H]3COP(=O)(O)O[C@H]3[C@H]2O)c(=O)[nH]1` [cGMP]: the “effect of cGMP on PDE II activity” value in the series with cGMP-stimulated PDE II [8] is given as “stimulated”.

Consider `Nc1ncnc2c1ncn2[C@@H]1O[C@H](CO)[C@@H](O)[C@H]1O` [adenosine], for which the Km in the series with adenosine deaminase [5] (substrate of adenosine deaminase) is 20 µM.
